For data set [1], the target named is Tyrosine-protein kinase ABL2 (Homo sapiens) (UniProt P42684). Description: Arg (h) Millipore kinase activity assay. Particulars: Compound concentration 1.0 uM; call rule not given here.
The target in data set [2] is Casein kinase I isoform gamma-2 (Homo sapiens) (UniProt P78368). Description: CK1gamma2 (h) Millipore kinase activity assay. The conditions noted are these: Compound concentration 1.0 uM.
The target in data set [3] is Homeodomain-interacting protein kinase 1 (Homo sapiens) (UniProt Q86Z02). Nature of the data set: HIPK1 (h) Millipore kinase activity assay. The conditions noted are these: Compound concentration 1.0 uM.
Data set [4] has as its target Maternal embryonic leucine zipper kinase (Homo sapiens) (UniProt Q14680). Nature of the data set: MELK (h) Millipore kinase activity assay. The conditions noted are these: Compound concentration 1.0 uM.
The target of data set [5] is Serine/threonine-protein kinase Nek2 (Homo sapiens) (UniProt P51955). Nature of the data set: NEK2 (h) Millipore kinase activity assay. The conditions noted are these: Compound concentration 1.0 uM.
Data set [6] deals with B1 bradykinin receptor (Homo sapiens) (UniProt P46663). Nature of the data set: Inhibition of Bradykinin B1 at 10 µM in the Eurofins-Panlabs radioligand binding assay (Eurofins_assay_212510). The conditions noted are these: Compound concentration 10.0 uM.
In data set [7] the target is voltage-gated sodium channel, site 2 (Rattus norvegicus, UniProt F1LQQ7+O08562+O88420+O88457+P04774+P04775+P08104+P15389+P15390+Q62968). Nature of the data set: Inhibition of Sodium Channel, Site 2 at 10 µM in the Eurofins-Panlabs radioligand binding assay (Eurofins_assay_279510). Set-up: ligand concentration 5 nM, non-specific ligand with concentration 100 µM Veratridine, incubation time 60 min, incubation temperature 37 °C. The conditions noted are these: male, Wistar, rat whole brain (except cerebellum) membranes, probe [3H] Batrachotoxinin, compound concentration 10 uM. The data set is classed as protein assay.

The target in data set [8] is Kappa-type opioid receptor (Homo sapiens) (UniProt P41145). Particulars: Compound concentration 10.0 uM.
Data set [9] deals with Beta-1 adrenergic receptor (Homo sapiens) (UniProt P08588). The conditions noted are these: Compound concentration 10.0 uM.
In data set [10] the target is Mu-type opioid receptor (Homo sapiens) (UniProt P35372). The conditions noted are these: Compound concentration 10.0 uM.
In data set [11] the test system is Tyrosine-protein kinase ABL1 (Homo sapiens), P00519 [M351T]. The conditions noted are these: Compound concentration 1000.0 nM.
For data set [12], the target named is Tyrosine-protein kinase ABL1 (Homo sapiens) (UniProt P00519). The conditions noted are these: Compound concentration 1000.0 nM.
The target of data set [13] is BMP-2-inducible protein kinase (Homo sapiens) (UniProt Q9NSY1). Particulars: Compound concentration 1000.0 nM.
Data set [14] has as its target Cyclin-dependent kinase 19 (Homo sapiens) (UniProt Q9BWU1). The conditions noted are these: Compound concentration 1000.0 nM.
For data set [15], the target named is Cyclin-dependent kinase 2 (Homo sapiens) (UniProt P24941). Particulars: Compound concentration 1000.0 nM.
Data set [16] addresses Cyclin-dependent kinase-like 3 (Homo sapiens) (UniProt Q8IVW4). The conditions noted are these: Compound concentration 1000.0 nM.
Data set [17] addresses Macrophage colony-stimulating factor 1 receptor (Homo sapiens) (UniProt P07333). The conditions noted are these: Compound concentration 1000.0 nM.
Data set [18] concerns the target Casein kinase I isoform gamma-1 (Homo sapiens) (UniProt Q9HCP0). Particulars: Compound concentration 1000.0 nM.
Data set [19] addresses Casein kinase I isoform gamma-3 (Homo sapiens) (UniProt Q9Y6M4). The conditions noted are these: Compound concentration 1000.0 nM.
Data set [20] concerns the target Dual specificity tyrosine-phosphorylation-regulated kinase 1B (Homo sapiens) (UniProt Q9Y463). The conditions noted are these: Compound concentration 1000.0 nM.
The subject of data set [21] is Epidermal growth factor receptor (Homo sapiens), P00533 [L858R,T790M]. Particulars: Compound concentration 1000.0 nM.
In data set [22] the target is Receptor-type tyrosine-protein kinase FLT3 (Homo sapiens) (UniProt P36888). Particulars: Compound concentration 1000.0 nM.
In data set [23] the test system is Receptor-type tyrosine-protein kinase FLT3 (Homo sapiens), P36888 [D835H]. The conditions noted are these: Compound concentration 1000.0 nM.
Data set [24] concerns Receptor-type tyrosine-protein kinase FLT3 (Homo sapiens), P36888 [K663Q]. Particulars: Compound concentration 1000.0 nM.
Data set [25] deals with Receptor-type tyrosine-protein kinase FLT3 (Homo sapiens), P36888 [N841I]. The conditions noted are these: Compound concentration 1000.0 nM.
Data set [26] addresses Cyclin-G-associated kinase (Homo sapiens) (UniProt O14976). Particulars: Compound concentration 1000.0 nM.
In data set [27] the target is Homeodomain-interacting protein kinase 2 (Homo sapiens) (UniProt Q9H2X6). The conditions noted are these: Compound concentration 1000.0 nM.
The target of data set [28] is Tyrosine-protein kinase ITK/TSK (Homo sapiens) (UniProt Q08881). Particulars: Compound concentration 1000.0 nM.
The target of data set [29] is Tyrosine-protein kinase JAK1 (Homo sapiens) (UniProt P23458). Particulars: Compound concentration 1000.0 nM.
Data set [30] has as its system Mast/stem cell growth factor receptor Kit (Homo sapiens), P10721 [L576P]. Particulars: Compound concentration 1000.0 nM.
For data set [31], the target named is Mitogen-activated protein kinase kinase kinase 13 (Homo sapiens) (UniProt O43283). The conditions noted are these: Compound concentration 1000.0 nM.
The target of data set [32] is Mitogen-activated protein kinase kinase kinase kinase 2 (Homo sapiens) (UniProt Q12851). The conditions noted are these: Compound concentration 1000.0 nM.
In data set [33] the target is Maternal embryonic leucine zipper kinase (Homo sapiens) (UniProt Q14680). Particulars: Compound concentration 1000.0 nM.
For data set [34], the target named is Tyrosine-protein kinase Mer (Homo sapiens) (UniProt Q12866). The conditions noted are these: Compound concentration 1000.0 nM.
Data set [35] concerns Hepatocyte growth factor receptor (Homo sapiens), P08581 [M1250T]. Particulars: Compound concentration 1000.0 nM.
Data set [36] deals with Serine/threonine-protein kinase PLK2 (Homo sapiens) (UniProt Q9NYY3). Particulars: Compound concentration 1000.0 nM.
For data set [37], the target named is RAF proto-oncogene serine/threonine-protein kinase (Homo sapiens) (UniProt P04049). Particulars: Compound concentration 1000.0 nM.
Data set [38] deals with Serine/threonine-protein kinase tousled-like 1 (Homo sapiens) (UniProt Q9UKI8). The conditions noted are these: Compound concentration 1000.0 nM.
The target in data set [39] is Transient receptor potential cation channel subfamily M member 6 (Homo sapiens) (UniProt Q9BX84). Particulars: Compound concentration 1000.0 nM.
Data set [40] deals with GABA-A receptor; anion channel (Rattus norvegicus) (UniProt O09028+P15431+P18506+P18508+P19969+P20236+P23574+P23576+P28471+P28473+P30191+P62813+P63079+P63138+Q91ZM7+Q9ES14). The conditions noted are these: Compound concentration 10.0 uM.

Each structure is given as a SMILES string.

One may read the inhibition as the change of the read-out against control, counted positive when it falls.

Maternal embryonic leucine zipper kinase (Homo sapiens), sequence (Q14680 whole entry, looked up): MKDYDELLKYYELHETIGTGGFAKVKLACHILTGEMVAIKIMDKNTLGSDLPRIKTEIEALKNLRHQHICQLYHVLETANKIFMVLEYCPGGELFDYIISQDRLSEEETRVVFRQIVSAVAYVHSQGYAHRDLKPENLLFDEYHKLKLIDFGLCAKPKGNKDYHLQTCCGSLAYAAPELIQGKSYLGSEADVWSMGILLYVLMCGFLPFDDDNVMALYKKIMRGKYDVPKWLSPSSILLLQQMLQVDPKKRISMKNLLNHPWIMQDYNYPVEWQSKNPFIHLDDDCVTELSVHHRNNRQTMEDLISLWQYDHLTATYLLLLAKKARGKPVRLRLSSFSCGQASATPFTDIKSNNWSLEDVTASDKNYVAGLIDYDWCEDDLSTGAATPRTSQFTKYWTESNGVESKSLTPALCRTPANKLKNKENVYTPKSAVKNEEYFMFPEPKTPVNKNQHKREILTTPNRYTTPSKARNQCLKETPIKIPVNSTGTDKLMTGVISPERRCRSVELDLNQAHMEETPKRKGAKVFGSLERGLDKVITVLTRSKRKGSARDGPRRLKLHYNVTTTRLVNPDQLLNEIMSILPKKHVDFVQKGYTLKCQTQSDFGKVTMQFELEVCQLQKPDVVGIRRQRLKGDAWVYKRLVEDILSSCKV
Serine/threonine-protein kinase tousled-like 1 (Homo sapiens), sequence (Q9UKI8 whole entry): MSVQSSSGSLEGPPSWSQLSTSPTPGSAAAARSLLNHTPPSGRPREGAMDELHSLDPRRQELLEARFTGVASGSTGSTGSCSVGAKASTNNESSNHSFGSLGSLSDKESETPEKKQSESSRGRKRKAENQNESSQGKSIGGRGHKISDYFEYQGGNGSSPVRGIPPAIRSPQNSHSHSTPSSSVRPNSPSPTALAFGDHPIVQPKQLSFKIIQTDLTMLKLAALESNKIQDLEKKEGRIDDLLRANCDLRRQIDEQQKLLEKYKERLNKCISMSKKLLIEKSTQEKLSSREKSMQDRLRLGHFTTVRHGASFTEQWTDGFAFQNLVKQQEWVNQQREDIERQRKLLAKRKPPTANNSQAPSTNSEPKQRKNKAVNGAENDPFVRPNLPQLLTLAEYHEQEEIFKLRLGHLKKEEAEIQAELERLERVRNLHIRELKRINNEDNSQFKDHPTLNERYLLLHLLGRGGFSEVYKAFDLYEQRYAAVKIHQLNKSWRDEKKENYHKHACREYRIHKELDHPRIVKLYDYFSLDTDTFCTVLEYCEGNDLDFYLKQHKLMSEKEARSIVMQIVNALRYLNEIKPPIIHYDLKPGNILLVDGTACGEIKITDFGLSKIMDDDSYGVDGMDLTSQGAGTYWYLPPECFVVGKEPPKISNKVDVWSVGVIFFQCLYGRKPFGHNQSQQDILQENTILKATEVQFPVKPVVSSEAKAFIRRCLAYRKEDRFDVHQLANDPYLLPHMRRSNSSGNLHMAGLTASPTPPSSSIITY
Serine/threonine-protein kinase Nek2 (Homo sapiens), sequence (P51955 whole entry): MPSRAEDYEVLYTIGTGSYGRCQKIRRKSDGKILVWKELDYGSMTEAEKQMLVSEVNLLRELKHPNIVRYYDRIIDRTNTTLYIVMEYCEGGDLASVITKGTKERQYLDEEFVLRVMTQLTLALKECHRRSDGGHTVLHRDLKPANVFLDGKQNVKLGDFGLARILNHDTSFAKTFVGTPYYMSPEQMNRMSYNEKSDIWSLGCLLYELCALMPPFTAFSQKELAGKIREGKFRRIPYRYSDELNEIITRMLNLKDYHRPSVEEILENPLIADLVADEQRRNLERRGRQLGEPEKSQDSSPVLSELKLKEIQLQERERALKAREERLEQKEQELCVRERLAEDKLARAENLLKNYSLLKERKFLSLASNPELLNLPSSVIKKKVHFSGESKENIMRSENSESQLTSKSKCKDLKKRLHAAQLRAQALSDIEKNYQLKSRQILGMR
Mast/stem cell growth factor receptor Kit (Homo sapiens), P10721 [L576P], sequence (P10721 whole entry L576P): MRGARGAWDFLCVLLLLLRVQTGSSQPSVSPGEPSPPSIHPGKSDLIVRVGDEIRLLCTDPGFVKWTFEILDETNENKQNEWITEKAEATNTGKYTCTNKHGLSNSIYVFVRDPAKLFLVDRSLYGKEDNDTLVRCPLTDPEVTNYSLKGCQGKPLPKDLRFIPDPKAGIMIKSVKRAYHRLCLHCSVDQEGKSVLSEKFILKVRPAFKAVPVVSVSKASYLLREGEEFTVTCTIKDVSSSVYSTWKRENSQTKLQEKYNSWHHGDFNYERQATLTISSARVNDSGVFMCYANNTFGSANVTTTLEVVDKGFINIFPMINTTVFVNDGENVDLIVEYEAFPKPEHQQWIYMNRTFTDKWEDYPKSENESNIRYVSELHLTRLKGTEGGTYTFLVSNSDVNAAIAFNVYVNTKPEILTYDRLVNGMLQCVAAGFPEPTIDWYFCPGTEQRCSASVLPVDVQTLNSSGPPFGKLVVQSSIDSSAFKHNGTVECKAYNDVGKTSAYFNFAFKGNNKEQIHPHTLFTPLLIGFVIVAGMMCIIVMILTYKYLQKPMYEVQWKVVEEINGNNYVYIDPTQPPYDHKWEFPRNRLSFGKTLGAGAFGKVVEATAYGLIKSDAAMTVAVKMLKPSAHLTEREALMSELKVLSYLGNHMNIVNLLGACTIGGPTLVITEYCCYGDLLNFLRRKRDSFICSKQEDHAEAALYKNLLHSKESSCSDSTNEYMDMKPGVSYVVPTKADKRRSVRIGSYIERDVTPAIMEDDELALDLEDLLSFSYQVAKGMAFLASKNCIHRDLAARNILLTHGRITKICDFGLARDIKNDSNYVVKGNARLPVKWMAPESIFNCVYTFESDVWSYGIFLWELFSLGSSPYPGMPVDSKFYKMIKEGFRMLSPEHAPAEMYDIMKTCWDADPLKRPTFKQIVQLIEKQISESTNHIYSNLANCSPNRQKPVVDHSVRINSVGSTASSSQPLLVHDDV
Cyclin-dependent kinase-like 3 (Homo sapiens), sequence (Q8IVW4 whole entry, looked up): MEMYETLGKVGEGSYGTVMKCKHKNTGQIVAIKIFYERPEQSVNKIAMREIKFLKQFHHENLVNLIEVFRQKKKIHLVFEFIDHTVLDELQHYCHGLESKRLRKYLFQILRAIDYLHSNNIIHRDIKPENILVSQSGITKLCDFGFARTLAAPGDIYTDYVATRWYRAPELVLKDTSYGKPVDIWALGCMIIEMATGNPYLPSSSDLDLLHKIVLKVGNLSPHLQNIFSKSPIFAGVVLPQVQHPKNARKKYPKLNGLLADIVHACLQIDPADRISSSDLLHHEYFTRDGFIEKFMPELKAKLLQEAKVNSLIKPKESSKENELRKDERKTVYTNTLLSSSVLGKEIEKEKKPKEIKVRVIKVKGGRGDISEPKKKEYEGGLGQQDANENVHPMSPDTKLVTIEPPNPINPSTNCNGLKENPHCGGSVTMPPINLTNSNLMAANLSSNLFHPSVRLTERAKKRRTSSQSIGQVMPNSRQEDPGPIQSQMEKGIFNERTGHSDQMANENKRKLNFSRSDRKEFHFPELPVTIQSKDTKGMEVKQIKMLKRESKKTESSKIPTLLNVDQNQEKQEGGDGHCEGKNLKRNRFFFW
Macrophage colony-stimulating factor 1 receptor (Homo sapiens), sequence (P07333 whole entry, canonical isoform): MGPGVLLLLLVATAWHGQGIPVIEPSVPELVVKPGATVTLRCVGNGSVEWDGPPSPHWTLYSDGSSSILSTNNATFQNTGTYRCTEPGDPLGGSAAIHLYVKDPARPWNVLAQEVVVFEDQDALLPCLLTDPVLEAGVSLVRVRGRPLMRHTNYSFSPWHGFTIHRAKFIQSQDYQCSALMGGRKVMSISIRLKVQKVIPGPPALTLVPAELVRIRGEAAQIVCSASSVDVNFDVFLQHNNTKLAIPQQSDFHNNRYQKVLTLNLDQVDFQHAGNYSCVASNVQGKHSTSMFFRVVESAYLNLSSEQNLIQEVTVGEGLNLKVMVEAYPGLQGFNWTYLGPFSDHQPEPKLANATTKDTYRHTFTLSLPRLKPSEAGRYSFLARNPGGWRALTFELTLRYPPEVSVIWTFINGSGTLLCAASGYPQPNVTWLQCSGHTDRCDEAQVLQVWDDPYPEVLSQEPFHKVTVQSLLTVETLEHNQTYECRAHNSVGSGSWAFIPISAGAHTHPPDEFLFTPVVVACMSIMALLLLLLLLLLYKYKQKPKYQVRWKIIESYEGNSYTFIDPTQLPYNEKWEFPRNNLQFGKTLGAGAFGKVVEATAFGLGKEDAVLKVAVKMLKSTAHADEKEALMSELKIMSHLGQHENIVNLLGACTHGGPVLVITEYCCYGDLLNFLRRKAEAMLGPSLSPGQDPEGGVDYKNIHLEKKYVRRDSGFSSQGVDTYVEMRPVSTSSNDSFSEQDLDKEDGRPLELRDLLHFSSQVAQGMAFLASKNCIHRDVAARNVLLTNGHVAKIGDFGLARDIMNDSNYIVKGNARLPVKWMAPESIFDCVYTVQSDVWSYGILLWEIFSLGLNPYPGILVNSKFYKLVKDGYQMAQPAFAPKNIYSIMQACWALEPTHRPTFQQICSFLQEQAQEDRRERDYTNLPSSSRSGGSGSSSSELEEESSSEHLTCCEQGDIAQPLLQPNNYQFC
Beta-1 adrenergic receptor (Homo sapiens), sequence (P08588 whole entry, looked up): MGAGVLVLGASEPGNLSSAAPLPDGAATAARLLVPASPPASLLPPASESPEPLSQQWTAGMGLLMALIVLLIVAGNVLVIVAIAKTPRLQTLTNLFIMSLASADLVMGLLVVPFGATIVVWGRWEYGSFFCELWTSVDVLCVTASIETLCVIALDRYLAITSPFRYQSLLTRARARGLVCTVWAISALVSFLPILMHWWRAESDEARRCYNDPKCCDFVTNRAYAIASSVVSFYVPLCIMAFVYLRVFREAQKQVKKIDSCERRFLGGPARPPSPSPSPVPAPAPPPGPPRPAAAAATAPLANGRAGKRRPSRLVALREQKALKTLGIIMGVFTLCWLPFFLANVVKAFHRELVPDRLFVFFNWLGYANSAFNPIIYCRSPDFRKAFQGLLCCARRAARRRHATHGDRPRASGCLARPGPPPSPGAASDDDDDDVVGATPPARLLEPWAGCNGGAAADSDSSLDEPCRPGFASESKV

Turning to `CC1=C(C#N)C(c2ccc3[nH]nc(C)c3c2)C(C#N)=C(C)N1` [BAY-474], the inhibition was 26% in data set [1]; 19% in data set [2]; -5% in data set [3]; 26% in data set [4]; -5% in data set [5]; 6% in data set [6]. The inhibition was 8.26% in [8], 0% in data set [9] and -9% in data set [10]. In addition, the inhibition at 60 min, 10 µM in [7] is listed as -1% (not active).

Take `CC1=C(C#N)[C@@H](c2ccc3[nH]nc(C)c3c2)C(C#N)=C(c2ccc(Cl)cc2)N1` [BAY-827]: the residual activity in [11] was 94.6%; in data set [12], 52.6%; in [13], 100%; in data set [14], 66.8%; in data set [15], 100%; in data set [16], 100%. Also, the residual activity in [17] is 100%; in [18], 100%; in [19], 100%; in data set [20], 50.1%; in [21], 100%; in [22] it was 100%. The residual activity in data set [23] was 100%; in data set [24], 100%; in [25], 100%; in [26], 100%; in data set [27], 86.1%; in data set [28], 97.2%. Moreover, the residual activity in [29] was 38.2%; in data set [30], 100%; in data set [31], 100%; in data set [32], 100%; in data set [33], 100%; in [34], 100%. Also, the residual activity in [35] is 25.1%; in [36], 100%; in [37] it was 100%; in [38], 100%; in data set [39] it was 100%. Moreover, the inhibition in data set [40] is -7.24%.

The record behind these values is ChEMBL document CHEMBL4507263, “Data for DCP probe BAY-474” (2021).
